Data reported in US20020177572A1, “Viral infection of cells” (priority 1997, published 2002).
Residues, ends and D or L forms follow the SMILES beside them. *: point of attachment. Cbz = O=C(OCc1ccccc1)*; OtBu = CC(C)(C)O*

Legend:
[1] = system: M-CSF-treated human monocytes; assay: Cytokine production in response to various stimuli (ELISA); format: cell-based; details: production induced by the stimulus; means of 4-11 experiments
Procedure: The elutriated human monocytes were incubated at approximately 2×10^6/ml in RPMI 1640 with 25 mM HEPES and 2 mM L-glutamine, supplemented with 5% (v/v) heat inactivated fetal calf serum and 10 units/ml penicillin/streptomycin. […] The cells were then replated on 100 mm Petri dishes and infected for 2 h with a m.o.i. of between 10:1 and 120:1 (in most experiments, 20:1. 40:1 or 80:1 was used) of either AdvIκBα or Adv0, in serum-free RPMI 1640. Cells were then incubated in RPMI 1640 supplemented as above for 48 h to allow for significant over-expression of IκBα, as assessed. During the changes of medium involved, non-adherent cells were discarded, resulting in a further purification of monocyte-derived macrophages.
(§1) In the assays for cytokine production, cells were replated at 5×10^5 cells per well on a 96-well dish, and stimulated as above for 4 or 16 h. Supernatants were analysed for TNFα (27), IL-1β, IL-6 and IL-8 (23), IL-10 (29, 30), IL-1ra and the p55 and p75 soluble TNF receptors (31) by ELISA. The proteosome inhibitor Cbz-Ile-Glu(O-t-Bu)-Ala-leucinal (PSI) was obtained from Calbiochem (Nottingham. England).
LPS is capable of inducing all the cytokines (TNFα, IL-1β, IL-6, IL-8) and inhibitors (IL-10, IL-1ra and the soluble TNF receptors) assayed in this study (Table I; the results are means of 4-11 experiments). The induction of TNFα mRNA by zymosan, has previously been reported to be far weaker than LPS-induced TNFα mRNA in mouse peritoneal macrophages (32), but the TNFα response to zymosan in M-CSF-treated human monocytes was equal to that of LPS (Table 1).

[2] = system: primary human monocytes; assay: Adenoviral infection of primary human monocytes (β-galactosidase expression by FACS); format: cell-based; details: prior cytokine treatment for 72 hours, then β-galactosidase adenovirus at 100 m.o.i.
Procedure: Human monocytes or murine RAW 264.7 were cultured at 5×10^5/ml in RPM1 1640 (Bio Whittaker inc.) supplemented with 5% (v/v) heat inactivated foetal calf serum containing 10 units/ml penicillin/streptomycin and 2 mM glutamine at 37° C. Monocytes were treated with GM-CSF (5U/ml) or M-CSF (1 μg/ml) for 72 hours. Expression of integrins was assayed by indirect immunofluorescence and FACS analysis using monoclonal antibodies to αVβ3 (100 μg/ml LM609, provided by IXSYS Corp. (San Diego Calif. USA), or αVβ5 (undiluted active supernatant kindly provided by J. Gamble Smith). The commercially available monoclonal antibody OX14(100 μg/ml) was used as a negative control.
Following cytokine treatment monocytes were washed in RPM 1640 and resuspended at 5×10^5 cells/ml. The cells were infected with virus at the indicated plaque forming units per cell (multiplicity of infection—m.o.i.). β-galactosidase expression in individual cells was measured by FACS.

[3] = system: U937; assay: Adenovirus infection and integrin induction in U937 cell line; format: cell-based, human; details: results not shown
[4] = system: THP-1; assay: Adenovirus infection and integrin induction in THP-1 cell line; format: cell-based, human; details: results not shown
[5] = system: human monocyte-derived macrophages; assay: Effect of proteosome inhibitor PSI on induced TNFα production; format: cell-based; details: FIG. 14
Procedure: as §1
The independence from NFκB of zymosan induced TNF was further emphasised by studies with the proteosome inhibitor PSI. Inhibition of proteosome function inhibits IκBα degradation thus preventing NFκB nuclear translocation.

TNFα
Anti-inflammatory cytokines: IL-10 [1]: 0 pg/mL | Proinflammatory cytokines: IL-1 [1]: 200 pg/mL | Proinflammatory cytokines: IL-6 [1]: 2000 pg/mL

GM-CSF: granulocyte-macrophage colony stimulating factor
cells expressing the β-galactosidase gene [2]: 52% | induction of αVβ3 or αVβ5 expression [3]: neither cytokine was able to induce | induction of αVβ3 or αVβ5 expression [4]: neither cytokine was able to induce

CC[C@H](C)[C@H](NC(=O)OCc1ccccc1)C(=O)N[C@@H](CCC(=O)OC(C)(C)C)C(=O)N[C@@H](C)C(=O)N[C@H](C=O)CC(C)C [PSI, Cbz-Ile-Glu(O-t-Bu)-Ala-leucinal] (Cbz-IE(OtBu)AL-aldehyde)
effect on LPS induced TNF production ([5]; LPS): very effective in blocking | effect on zymosan-induced TNF production ([5]; zymosan): did not affect

C[C@H](CCC(=O)O)C[C@H](C)C[C@H](C)C(=O)/C=C(\O)[C@H](C)C[C@H](C)C/C=C/[C@@H](C)[C@@H](O)[C@@H](C)[C@@H](O)C[C@@H]1CC[C@@](C)([C@H]2CC[C@@](C)([C@@H](C)O)O2)O1 [Lomycin, ionomycin]
Anti-inflammatory cytokines: IL-10 [1]: 0 pg/mL | Anti-inflammatory cytokines: IL-tra [1]: 0 pg/mL | Anti-inflammatory cytokines: P55 s TNF-R [1]: 0 pg/mL | Anti-inflammatory cytokines: P75 s TNF-R [1]: 0 pg/mL | Proinflammatory cytokines: IL-1 [1]: 0 pg/mL | Proinflammatory cytokines: IL-6 [1]: 0 pg/mL | Proinflammatory cytokines: IL-8 [1]: 900 pg/mL | Proinflammatory cytokines: TNFα [1]: 0 pg/mL

CCCCCCCCCCCCCC(=O)O[C@@H]1[C@@H](C)[C@@]2(O)[C@@H](C=C(CO)C[C@]3(O)C(=O)C(C)=C[C@@H]23)[C@@H]2C(C)(C)[C@]12OC(C)=O [PMA]
Anti-inflammatory cytokines: IL-10 [1]: 0 pg/mL | Anti-inflammatory cytokines: IL-tra [1]: 1000 pg/mL | Anti-inflammatory cytokines: P55 s TNF-R [1]: 0 pg/mL | Anti-inflammatory cytokines: P75 s TNF-R [1]: 500 pg/mL | Proinflammatory cytokines: IL-1 [1]: 400 pg/mL | Proinflammatory cytokines: IL-6 [1]: 300 pg/mL | Proinflammatory cytokines: IL-8 [1]: 3000 pg/mL | Proinflammatory cytokines: TNFα [1]: 6000 pg/mL

B1: M-CSF: macrophage colony stimulating factor (protein, UniProt P09603 33-554, looked up)
Macrophage colony-stimulating …: EEVSEYCSHMIGSGHLQSLQRLIDSQMETSCQITFEFVDQEQLKDPVCYLKKAFLLVQDIMEDTMRFRDNTPNAIAIVQLQELSLRLKSCFTKDYEEHDKACVRTFYETPLQLLEKVKNVFNETKNLLDKDWNIFSKNCNNSFAECSSQDVVTKPDCNCLYPKAIPSSDPASVSPHQPLAPSMAPVAGLTWEDSEGTEGSSLLPGEQPLHTVDPGSAKQRPPRSTCQSFEPPETPVVKDSTIGGSPQPRPSVGAFNPGMEDILDSAMGTNWVPEEASGEASEIPVPQGTELSPSRPGGGSMQTEPARPSNFLSASSPLPASAKGQQPADVTGTALPRVGPVRPTGQDWNHTPQKTDHPSALLRDPPEPGSPRISSLRPQGLSNPSTLSAQPQLSRSHSSGSVLPLGELEGRRSTRDRRSPAEPEGGPASEGAARPLPRFNSVPLTDTGHERQSEGSFSPQLQESVFHLLVPSVILVLLAVGGLLFYRWRRRSHQEPQRADSPLEQPEGSPLTQDDRQVELPV
cells expressing the β-galactosidase gene [2]: 90% | induction of αVβ3 or αVβ5 expression [3]: neither cytokine was able to induce | induction of αVβ3 or αVβ5 expression [4]: neither cytokine was able to induce
